Test results published in patent US11103525B2, “Idoxuridine and its analogs as neuroprotectans for the treatment of parkinsonism” (priority 2017, dated 2021).

Experiments:
[1] = target: T1, hepatic aldehyde oxidase (Homo sapiens, UniProt Q06278); settings: cited from earlier work
T1 sequence (Q06278 1-1338): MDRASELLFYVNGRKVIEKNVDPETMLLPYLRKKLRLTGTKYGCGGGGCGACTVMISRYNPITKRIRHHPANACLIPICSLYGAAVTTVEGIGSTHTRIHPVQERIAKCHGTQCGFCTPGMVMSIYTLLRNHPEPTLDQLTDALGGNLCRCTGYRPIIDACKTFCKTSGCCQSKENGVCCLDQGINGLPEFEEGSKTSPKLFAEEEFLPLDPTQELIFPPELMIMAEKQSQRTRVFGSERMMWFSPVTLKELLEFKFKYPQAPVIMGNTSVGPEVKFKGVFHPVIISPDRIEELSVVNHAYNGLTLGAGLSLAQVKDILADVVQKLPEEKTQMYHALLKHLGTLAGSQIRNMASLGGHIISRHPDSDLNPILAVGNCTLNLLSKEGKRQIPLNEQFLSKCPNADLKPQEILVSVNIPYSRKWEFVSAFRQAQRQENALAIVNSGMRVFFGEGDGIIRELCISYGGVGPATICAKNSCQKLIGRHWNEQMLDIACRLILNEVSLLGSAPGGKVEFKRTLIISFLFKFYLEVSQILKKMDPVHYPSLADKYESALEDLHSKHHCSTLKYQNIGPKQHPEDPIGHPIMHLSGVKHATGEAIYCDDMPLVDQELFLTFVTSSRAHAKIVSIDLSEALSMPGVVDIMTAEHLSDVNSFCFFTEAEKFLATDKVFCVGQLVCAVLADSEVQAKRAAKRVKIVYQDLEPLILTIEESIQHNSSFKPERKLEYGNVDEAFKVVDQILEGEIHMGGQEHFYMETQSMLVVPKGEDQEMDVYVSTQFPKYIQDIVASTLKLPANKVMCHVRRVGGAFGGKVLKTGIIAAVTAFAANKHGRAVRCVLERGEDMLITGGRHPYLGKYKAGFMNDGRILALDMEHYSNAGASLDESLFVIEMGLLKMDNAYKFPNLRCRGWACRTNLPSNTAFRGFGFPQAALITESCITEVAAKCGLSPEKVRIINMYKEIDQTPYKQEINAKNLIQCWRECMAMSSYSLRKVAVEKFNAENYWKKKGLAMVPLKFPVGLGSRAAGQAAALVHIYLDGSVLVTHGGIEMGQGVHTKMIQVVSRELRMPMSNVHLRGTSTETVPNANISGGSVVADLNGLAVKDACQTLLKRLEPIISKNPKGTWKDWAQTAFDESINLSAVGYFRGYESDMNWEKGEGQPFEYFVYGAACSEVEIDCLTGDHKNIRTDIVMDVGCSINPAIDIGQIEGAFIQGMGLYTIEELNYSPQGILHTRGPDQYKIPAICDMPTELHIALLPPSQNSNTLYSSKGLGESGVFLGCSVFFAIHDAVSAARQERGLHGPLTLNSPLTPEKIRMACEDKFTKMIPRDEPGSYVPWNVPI

[2] = compared with idoxuridine; cited from earlier work
[3] = tested on: GPR37-tGFP; assay: GPR37-tGFP translocation assay; assay type: cell-based, mouse; settings: for effect in GPR37-translocation assay (hit rating): tested at 2, 10 and 20 μM
Method: FIG. 2. Schematic representation of the rationale and the basic steps of GPR37-translocation assay. A. GPR37 is prone to misfolding and aggregation, which, in metabolically-active cells, are followed by degradation and results in low levels of functional receptor in the plasma membrane. The primary targets of the screening assay are compounds that can directly or indirectly facilitate maturation and trafficking of GPR37 to the plasma membrane. B. N2a cells stably expressing GPR37-tGFP are seeded in poly-D-Lysine coated 384 well plates at density 5000 cells/well. 24 h later cells are treated with compounds, including positive and negative controls, and incubated for 72 h. Then cells are fixed with 4% PFA and additionally stained with Hoechst 33342 (nuclei) and HCS CellMask™ red (cell body) to enable segmentation of the plasma membrane. Acquisition of fluorescence images is done using ImageXpress high content screening system (Molecular Devices). Quantification of GPR37-tGFP levels in the plasma membrane is done using CellProfiler software. FIG. 3. Schematic representation of Image analysis pipeline and final outcome data. Segmentation of the plasma membrane is performed in five main steps: 1) identification of nuclei (primary objects) using nuclear stain, 2) determination of cell borders using primary objects as seeds and growing these objects in respect of tGFP and HCS CellMask™ fluorescence intensity (secondary objects), 3) shrinking and expending secondary objects, 4) subtraction of shrunken cells from expended cells which results in membrane segmentation (tertiary objects), 5) tGFP fluorescence intensity is calculated within tertiary objects. Z′ factor is a quality measure of an assay which describes how well separated positive and negative controls are. Assays having Z′ factors above 0.5 are considered good assays. N2a cells stably expressing GPR37-tGFP were seeded in 384 BDFalcon BioCoat Poly-D-Lysine coated plates at a density of 5000 cells/well, and 50 μL incubation volume of maintenance medium. Cells were incubated at 37° C., 5% CO2 using humidity chamber. 24 h later, the cells were treated with 10 μL of compounds of desired concentration, including positive (2 mM dibutyryl-cAMP+0.5 mM 4-phenylbutyrate) and negative controls (0.1% DMSO), and incubated for 72 h. Cells were fixed with 4% PFA by adding 20 μL of 16% PFA directly to cell medium, incubating for 20 min and washing with PBS-Tween20 (0.05%). Directly after fixation cells were stained for nuclei with Hoechst 33342 (0.01 mg/mL) and for cell bodies with HCS CellMask™ Red stain (Thermo Fisher Scientific Inc.) (0.001 mg/mL) by incubating with the dyes for 30 min in PBS-Tween20 (0.05%) followed by washing with PBS. All the additional steps, including cell seeding were performed using Multidrop Combi dispenser (Thermo Scientific) and washing steps were done by means of HydroSpeed™ plate washer (Tecan). The images were captured using ImageXpress Micro XLS Widefield High-Content Analysis System (Molecular Devices, LLC) in 3 fluorescent channels (ImageXpress filters are listed, followed by excitation/emission in nm): DAPI (387/447), FITC (482/536) and TexasRed (562/624). Binning 2 was applied during the acquisition and digital confocal option was used for FITC and TexasRed filters. Typically, 5 images were taken per well at magnification 20× and stored as 16 bit, gray scale tif files along with metadata in Oracle database, for further analysis. Quantification of GPR37-tGFP levels in the plasma membrane was done using CellProfiler™ software. CellProfiler™ is an open-source cell image analysis software available at www.cellprofiler.org. An image analysis pipeline used for membrane segmentation consisted of 5 main steps (FIG. 3): 1) segmentation of nuclei (primary objects); 2) segmentation of cell bodies (secondary objects); 3) shrinking and expending cell bodies; 4) subtraction of shrank cells from expanded cells (tertiary objects—membranes); 5) calculating tGFP fluorescence in the membranes. […]

O=c1ncc(I)cn1[C@H]1C[C@H](O)[C@@H](CO)O1 [ropidoxuridine, 1-((2R,4S,5R)-4-hydroxy-5-(hydroxymethyl)tetrahydrofuran-2-yl)-5-iodopyrimidin-2(1H)-one]
metabolic conversion to idoxuridine [1]: efficiently converted to idoxuridine | stability in vivo [2]: more stable | toxicity in vivo [2]: less toxic

CCCC(=O)Nc1ncnc2c1ncn2[C@@H]1O[C@@H]2COP(=O)(O)O[C@H]2[C@H]1OC(=O)CCC [dibutyryl-cAMP]
increase of GPR37-tGFP in the plasma membrane ([3]; without starvation, used as positive control): remarkable increase

C#Cc1cn([C@H]2C[C@H](O)[C@@H](CO)O2)c(=O)[nH]c1=O [Compound 4, 5-ethynyl-1-((2R,4S,5R)-4-hydroxy-5-(hydroxymethyl)-tetrahydrofuran-2-yl)pyrimidine-2,4(1H,3H)-dione]
effect in GPR37-translocation assay (hit rating) [3]: slight positive effect

O=c1[nH]c(=O)n([C@H]2C[C@H](O)[C@@H](CO)O2)cc1O [Compound 2, 5-hydroxy-1-((2R,4S,5R)-4-hydroxy-5-(hydroxymethyl)tetrahydrofuran-2-yl)pyrimidine-2,4(1H,3H)-dione]
effect in GPR37-translocation assay (hit rating) [3]: slight positive effect

Nc1cccc(-c2cn([C@H]3C[C@H](O)[C@@H](CO)O3)c(=O)[nH]c2=O)c1 [Compound 17, 5-(3-aminophenyl)-1-((2R,4S,5R)-4-hydroxy-5-(hydroxy-methyl)tetrahydrofuran-2-yl)pyrimidine-2,4(1H,3H)-dione]
effect in GPR37-translocation assay (hit rating) [3]: strong hit
